The source made the active and inactive calls. The rule behind the calls is not given here.
Key:
[1] = molecular target: T1, Protein mono-ADP-ribosyltransferase PARP3 (Homo sapiens) (UniProt Q9Y6F1); experiment: Inhibition of PARP3 (unknown origin)
T1 sequence (whole entry): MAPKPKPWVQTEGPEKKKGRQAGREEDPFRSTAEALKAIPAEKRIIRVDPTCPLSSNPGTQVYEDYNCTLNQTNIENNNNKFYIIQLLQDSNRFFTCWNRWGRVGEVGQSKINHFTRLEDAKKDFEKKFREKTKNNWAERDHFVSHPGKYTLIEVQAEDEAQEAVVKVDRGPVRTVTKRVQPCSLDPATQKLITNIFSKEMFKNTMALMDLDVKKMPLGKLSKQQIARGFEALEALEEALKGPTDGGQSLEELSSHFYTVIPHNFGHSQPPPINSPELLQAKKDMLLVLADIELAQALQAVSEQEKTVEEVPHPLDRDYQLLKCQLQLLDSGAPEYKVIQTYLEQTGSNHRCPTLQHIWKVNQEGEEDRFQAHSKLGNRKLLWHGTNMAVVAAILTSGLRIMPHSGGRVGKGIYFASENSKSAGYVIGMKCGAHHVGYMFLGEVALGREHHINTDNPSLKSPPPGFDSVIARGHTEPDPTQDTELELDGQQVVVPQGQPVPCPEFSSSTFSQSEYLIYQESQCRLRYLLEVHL

[2] = molecular target: T2, Protein mono-ADP-ribosyltransferase PARP12 (Homo sapiens) (UniProt Q9H0J9); experiment: Inhibition of PARP12 (unknown origin)
T2 sequence (whole entry): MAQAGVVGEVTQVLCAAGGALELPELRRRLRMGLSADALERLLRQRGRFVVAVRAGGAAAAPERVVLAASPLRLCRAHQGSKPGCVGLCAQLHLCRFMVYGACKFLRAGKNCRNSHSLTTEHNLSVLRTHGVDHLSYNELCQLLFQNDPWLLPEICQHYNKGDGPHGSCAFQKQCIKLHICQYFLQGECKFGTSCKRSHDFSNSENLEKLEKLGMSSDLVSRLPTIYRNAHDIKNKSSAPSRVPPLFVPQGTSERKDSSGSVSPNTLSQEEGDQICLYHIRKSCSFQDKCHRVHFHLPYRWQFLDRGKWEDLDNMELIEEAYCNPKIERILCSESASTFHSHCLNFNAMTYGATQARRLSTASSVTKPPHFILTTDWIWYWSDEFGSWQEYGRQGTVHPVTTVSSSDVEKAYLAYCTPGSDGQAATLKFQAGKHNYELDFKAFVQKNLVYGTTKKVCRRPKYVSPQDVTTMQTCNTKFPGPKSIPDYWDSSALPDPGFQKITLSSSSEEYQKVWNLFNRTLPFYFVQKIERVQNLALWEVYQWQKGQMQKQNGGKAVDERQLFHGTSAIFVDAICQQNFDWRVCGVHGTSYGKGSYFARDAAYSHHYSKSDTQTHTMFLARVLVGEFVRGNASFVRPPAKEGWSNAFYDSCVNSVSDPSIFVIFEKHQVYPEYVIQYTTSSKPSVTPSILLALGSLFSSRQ

[3] = molecular target: T3, Protein mono-ADP-ribosyltransferase PARP10 (Homo sapiens) (UniProt Q53GL7); experiment: Inhibition of PARP10 (unknown origin)
T3 sequence (whole entry): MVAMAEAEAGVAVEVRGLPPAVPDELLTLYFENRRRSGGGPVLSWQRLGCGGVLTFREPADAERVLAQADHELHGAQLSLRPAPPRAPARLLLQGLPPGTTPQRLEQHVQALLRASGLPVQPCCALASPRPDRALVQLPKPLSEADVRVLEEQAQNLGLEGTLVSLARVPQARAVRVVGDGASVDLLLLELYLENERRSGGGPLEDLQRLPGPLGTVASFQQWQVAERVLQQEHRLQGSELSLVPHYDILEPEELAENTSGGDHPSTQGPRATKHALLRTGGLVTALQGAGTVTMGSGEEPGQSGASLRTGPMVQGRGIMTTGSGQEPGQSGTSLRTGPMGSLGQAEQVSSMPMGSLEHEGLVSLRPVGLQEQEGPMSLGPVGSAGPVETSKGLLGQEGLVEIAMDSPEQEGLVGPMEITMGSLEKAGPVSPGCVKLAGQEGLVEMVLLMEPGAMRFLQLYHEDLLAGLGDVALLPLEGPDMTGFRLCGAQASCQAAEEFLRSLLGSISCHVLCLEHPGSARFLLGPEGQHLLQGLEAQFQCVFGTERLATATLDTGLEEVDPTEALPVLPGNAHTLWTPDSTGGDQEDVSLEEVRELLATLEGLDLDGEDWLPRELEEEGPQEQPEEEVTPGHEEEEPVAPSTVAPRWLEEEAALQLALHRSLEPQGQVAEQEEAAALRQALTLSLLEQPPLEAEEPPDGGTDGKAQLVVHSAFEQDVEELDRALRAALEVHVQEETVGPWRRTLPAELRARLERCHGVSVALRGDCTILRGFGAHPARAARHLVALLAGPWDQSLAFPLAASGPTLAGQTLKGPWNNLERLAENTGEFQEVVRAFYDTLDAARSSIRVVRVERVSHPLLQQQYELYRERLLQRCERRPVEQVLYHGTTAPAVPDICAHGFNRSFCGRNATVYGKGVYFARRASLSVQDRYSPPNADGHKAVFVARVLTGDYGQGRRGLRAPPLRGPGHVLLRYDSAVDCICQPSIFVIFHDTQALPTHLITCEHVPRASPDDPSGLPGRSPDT

[4] = molecular target: T4, Protein mono-ADP-ribosyltransferase PARP15 (Homo sapiens) (UniProt Q460N3); experiment: Inhibition of PARP15 (unknown origin)
T4 sequence (whole entry): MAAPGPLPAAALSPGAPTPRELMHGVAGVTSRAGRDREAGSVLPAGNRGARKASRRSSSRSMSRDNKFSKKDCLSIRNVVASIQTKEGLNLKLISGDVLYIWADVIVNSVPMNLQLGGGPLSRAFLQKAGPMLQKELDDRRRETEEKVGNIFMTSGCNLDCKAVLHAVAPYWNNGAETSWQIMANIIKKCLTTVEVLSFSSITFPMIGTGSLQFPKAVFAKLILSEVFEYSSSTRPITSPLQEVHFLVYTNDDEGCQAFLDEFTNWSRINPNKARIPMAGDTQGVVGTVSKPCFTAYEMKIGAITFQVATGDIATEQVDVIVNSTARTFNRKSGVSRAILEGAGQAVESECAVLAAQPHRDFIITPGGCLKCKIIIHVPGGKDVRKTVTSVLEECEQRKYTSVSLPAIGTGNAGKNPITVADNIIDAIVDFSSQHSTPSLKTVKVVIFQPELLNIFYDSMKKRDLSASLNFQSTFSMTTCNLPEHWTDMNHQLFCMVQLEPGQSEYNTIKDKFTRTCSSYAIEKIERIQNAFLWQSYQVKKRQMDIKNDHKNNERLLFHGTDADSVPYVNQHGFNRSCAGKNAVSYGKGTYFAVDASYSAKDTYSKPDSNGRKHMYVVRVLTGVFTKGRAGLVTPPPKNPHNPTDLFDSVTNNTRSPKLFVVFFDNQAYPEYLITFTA

| Compound | inhibition [1] | inhibition [2] | inhibition [3] | inhibition [4] |
| --- | --- | --- | --- | --- |
| Cc1cc(OCC(=O)NCCNC(=O)c2cccc(COc3ccccc3C(N)=O)c2)c2c3c(c(=O)oc2c1)CCC3 | inactive | inactive | Active | Active |
| CNC(=O)[C@H](CNC(=O)CCn1c(=O)[nH]c(=O)c2ccccc21)NC(=O)c1cnc2ccccc2c1 | inactive | inactive | inactive | inactive |

From ChEMBL document CHEMBL5331077, “Combining pharmacophore models derived from DNA-encoded chemical libraries with structure-based exploration to predict Tankyrase 1 inhibitors” (Eur J Med Chem, 2023)
